Reference: paper PMC12064818, “A general assay platform to study protein pharmacology using ligand-dependent structural dynamics” (Nature Communications, 2025)

Experiments:
FLuc-C-HiBiT = target: T1, FLuc-C-HiBiT (Photinus pyralis, UniProt P08659); assay: biochemical; conditions: enzyme activity, 10 uM ATP; read-out: IC50 or SDR50 (mM) / FLuc E
T1 construct: firefly luciferase with C-terminal HiBiT tag, E. coli expressed

[1] = target: FLuc-N-HiBiT (firefly luciferase) (Photinus pyralis, UniProt P08659, form not given/L550V); assay: SDR assay, FLuc-N-HiBiT; conditions: substituted indoline (clade A'); for % Activity (max response, + ATP) / % Activity (max response, - ATP): SDR
[2] = target: FLuc-C-NLuc (firefly luciferase) (Photinus pyralis, UniProt P08659, form not given/L550V); assay: SDR assay, FLuc-C-NLuc; conditions: - ATP
NLuc = target: T2, NLuc (Oplophorus gracilirostris, UniProt Q9GV45, A31E/A60N/A81I/F95D/I117V/K70R/L54V/L99Q/M102K/N193R/P142E/Q151K/Q38R/Q45L/V71I/Y165I); format: biochemical; conditions: - ATP
T2 construct: His tag (inferred from IMAC purification); made in house; host or cells: E. coli
Description: Compounds and controls were added to plates as described in Supplementary Data 8. Nano-Glo luciferase assay reagent (Promega) was prepared fresh according to manufacturer’s protocol, filtered and added at 3 μL per well across assay plates with a BioRaptr2 dispenser. Enzyme was incubated with Nano-Glo reagent for 10 min and NLuc luminescence was read on a ViewLux CCD imager (PerkinElmer), with 1 s exposure with medium gain and 2x binning. Data were normalized to average no enzyme control as 100% enzyme inhibition and average DMSO neutral control. See Supplementary Table 4 for additional details.
Supplementary Table 4. […]
Sequence Param eter Value Description […]
(§1) 5 Detector ViewLux Read plate lum inescence (Exposure = 1- 10 sec; Gain = Medium -high; Speed = Slow;
Dispensing solution was diluted in 1X PBS, pH 7.4.
NanoLuc luciferase (NLuc) enzym atic lum inescence assay […]
Nano-Glo luciferase assay reagent (Prom ega, Cat # N1120) prepared according to m anufacturer’s recom m endations,
4 com ponents stored at -30 °C until use, and reagent prepared fresh for each assay.
syringe filter prior to dispense.

[3] = target: FLuc-C-HiBiT (firefly luciferase) (Photinus pyralis, UniProt P08659, form not given/L550V); assay: SDR assay, FLuc-C-HiBiT; conditions: SDR max. response, clade S
P. pyralis FLuc = P. pyralis FLuc (Photinus pyralis, UniProt P08659); assay: FLuc enzymatic luminescence assay, P. pyralis FLuc; format: biochemical; conditions: FLuc enzymatic assay; for Efficacy (%) FLuc E: Clade S follow-up; for IC50: read-out: IC50 or SDR50 (mM) FLuc E
Description: The enzyme activity of FLuc-N-HiBiT, FLuc-C-HiBiT, and FLuc-C-NLuc was measured similar to P. pyralis firefly luciferase (FLuc) as previously described. […] Compounds and controls were added to each plate as described in Supplementary Data 8 with a Hornet pintool system (Wako Automation). Compounds were incubated with respective enzymes for 30–60 min at room temperature protected from light and covered by solid metal lid to prevent evaporation. […] Luciferin was incubated with FLuc enzyme for 5 min before FLuc activity was then measured on a ViewLux CCD imager (PerkinElmer), with exposure times up to ten seconds with medium to high gain settings. Data were normalized to average no enzyme control as 100% enzyme inhibition and average DMSO neutral control. See Supplementary Table 4 for additional details.
Assays were run in the presence (solid symbols) or absence
(open symbols) of 10 µM ATP. Corresponding SMIL E S for NC GC IDs and source data are provided in
Supplementary Data 3 and as a Source Data file. 10
Supplementary Table 4. Protocol for Firefly luciferase (FLuc) and NanoLuc (NLuc) enzymatic
Supplementary Table 4: Protocol for Firefly luciferase (FLuc) and NanoLuc (NLuc) enzym atic lum inescence assay
Firefly luciferase (FLuc) enzym atic lum inescence assay
Sequence Param eter Value Description
No enzym e control (colum n 1) and enzym e solution (1- 10 nM FLuc enzym e) in FLuc assay
1 Reagent 4 µLbuffer; white/solid bottom , m edium bind, high base plates (Greiner), dispensed with BioRaptr
com pounds transferred to respective colum ns with Pintool
2b Test Com pounds 23 nLconcentration range) in colum ns 5- 48; com pounds transferred to respective wells with
3 Incubation 30 m in Incubate enzym e + com pounds at am bient tem p for 30 m in, protected from light
4 Reagent 3 µLAdd 3 µL of D-luciferin substrate solution to each well (final concentration 10 µM); dispensed
as §1
Dispensing solution was diluted in 1X PBS, pH 7.4. […]

T2 sequence (Q9GV45 other isoform, or with tags, fused parts or gaps with the stated changes): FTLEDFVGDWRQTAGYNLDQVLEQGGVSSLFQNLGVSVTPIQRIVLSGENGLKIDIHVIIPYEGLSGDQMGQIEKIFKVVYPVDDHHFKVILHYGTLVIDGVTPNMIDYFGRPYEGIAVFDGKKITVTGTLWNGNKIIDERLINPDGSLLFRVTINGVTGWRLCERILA
Sequence of FLuc-C-NLuc (firefly luciferase) (P08659 2-550 L550V, form open): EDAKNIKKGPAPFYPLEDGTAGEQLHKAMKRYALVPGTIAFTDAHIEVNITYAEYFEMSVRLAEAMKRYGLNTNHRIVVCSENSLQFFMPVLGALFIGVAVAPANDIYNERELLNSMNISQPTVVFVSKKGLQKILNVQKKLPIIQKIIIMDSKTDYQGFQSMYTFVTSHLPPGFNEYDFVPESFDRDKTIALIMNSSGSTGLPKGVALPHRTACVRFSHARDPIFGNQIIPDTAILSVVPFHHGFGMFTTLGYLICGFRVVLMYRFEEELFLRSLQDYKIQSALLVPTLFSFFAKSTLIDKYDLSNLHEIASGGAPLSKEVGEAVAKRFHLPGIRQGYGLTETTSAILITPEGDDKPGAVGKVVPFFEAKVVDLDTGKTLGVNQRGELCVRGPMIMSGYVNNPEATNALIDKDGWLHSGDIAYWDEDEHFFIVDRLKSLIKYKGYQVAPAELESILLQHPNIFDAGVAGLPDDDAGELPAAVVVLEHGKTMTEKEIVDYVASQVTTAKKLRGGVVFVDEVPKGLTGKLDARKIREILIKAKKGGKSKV
Sequence of FLuc-N-HiBiT (firefly luciferase) (P08659 2-550 L550V, form open): as above
Sequence of FLuc-C-HiBiT (firefly luciferase) (P08659 2-550 L550V, form open): as above
T1 sequence (P08659 whole entry, looked up): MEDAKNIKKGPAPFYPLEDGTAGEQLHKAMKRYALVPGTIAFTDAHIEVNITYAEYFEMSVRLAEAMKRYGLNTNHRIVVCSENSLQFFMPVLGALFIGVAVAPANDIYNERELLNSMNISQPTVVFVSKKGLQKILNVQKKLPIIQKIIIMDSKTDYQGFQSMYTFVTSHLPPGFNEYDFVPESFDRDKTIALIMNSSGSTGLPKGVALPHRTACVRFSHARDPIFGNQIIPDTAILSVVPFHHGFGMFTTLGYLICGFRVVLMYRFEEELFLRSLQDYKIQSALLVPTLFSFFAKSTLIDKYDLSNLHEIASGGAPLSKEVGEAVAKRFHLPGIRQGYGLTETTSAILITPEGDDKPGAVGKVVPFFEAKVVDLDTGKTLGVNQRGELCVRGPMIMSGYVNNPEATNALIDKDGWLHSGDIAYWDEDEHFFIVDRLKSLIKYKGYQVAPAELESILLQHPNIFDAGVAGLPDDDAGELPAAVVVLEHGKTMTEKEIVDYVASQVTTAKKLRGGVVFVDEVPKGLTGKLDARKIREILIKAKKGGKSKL
Sequence of P. pyralis FLuc (P08659 whole entry): as the sequence (P08659 whole entry, looked up) above

SMILES	IC50 (FLuc-C-HiBiT) [µM]	% Activity (max response, + ATP) ([1]; + ATP) [%]	% Activity (max response, - ATP) ([1]; - ATP) [%]	pSDR50 (clade A') ([1]; + ATP)	pSDR50 (clade A') ([1]; - ATP)	Efficacy (%) FLuc-C-NLuc SDR (-ATP) [2] [%]	Efficacy (%) NLuc (- ATP) (NLuc) [%]	% Activity (max response, + ATP) [3] [%]	% Activity (max response, - ATP) [3] [%]	pIC50 or pSDR50 FLuc E (P. pyralis FLuc)	Efficacy (%) FLuc E (P. pyralis FLuc) [%]	IC50 (P. pyralis FLuc) [mM]
O=C(O)c1cccc2c1CCN2C(=O)c1ccccc1 [NCGC00432607-01]	3.94	65.64	14.85	5.66	–	–	–	–	–	–	–	–
O=C(O)c1cccc2c1CCN2C(=O)c1ccc(F)cc1 [NCGC00432675-01]	1.76	81.35	20.90	5.89	4.16	–	–	–	–	–	–	–
O=C(O)c1cccc2c1CCN2C(=O)Nc1ccc(F)cc1 [NCGC00432687-01]	0.00351	127.90	102.18	8.36	4.92	–	–	–	–	–	–	–
O=C(NC1CCCCCC1)C1CCN(C(=O)c2ncn3c2COC(c2ccccc2)C3)CC1 (stereo not shown) [NCGC00449769-01]	–	–	–	–	–	0.00	0.00	369.53	0.00	5.26	-80.74	0.00555
O=C(NC1CCCCCCC1)C1CCN(C(=O)c2ncn3c2COC(c2ccccc2)C3)CC1 (stereo not shown) [NCGC00449770-01]	–	–	–	–	–	0.00	0.00	338.48	0.00	5.16	-92.12	0.00699
O=C(NCCC1=CCCCC1)C1CCN(C(=O)c2ncn3c2COC(c2ccccc2)C3)CC1 (stereo not shown) [NCGC00449771-01]	–	–	–	–	–	0.00	0.00	338.43	0.00	5.56	-97.83	0.00278
O=C(NCc1ccccc1)C1CCN(C(=O)c2ncn3c2COC(c2ccccc2)C3)CC1 (stereo not shown) [NCGC00449773-01]	–	–	–	–	–	0.00	0.00	344.70	0.00	5.56	-92.80	0.00278
Cc1ccc(CNC(=O)C2CCN(C(=O)c3ncn4c3COC(c3ccccc3)C4)CC2)cc1 (stereo not shown) [NCGC00449774-01]	–	–	–	–	–	0.00	0.00	316.62	0.00	5.01	-84.01	0.00988
CCc1ccc(CNC(=O)C2CCN(C(=O)c3ncn4c3COC(c3ccccc3)C4)CC2)cc1 (stereo not shown) [NCGC00449775-01]	–	–	–	–	–	0.00	0.00	294.78	0.00	5.01	-61.62	0.00988
COc1cccc(CNC(=O)C2CCN(C(=O)c3ncn4c3COC(c3ccccc3)C4)CC2)c1 (stereo not shown) [NCGC00449777-01]	–	–	–	–	–	0.00	0.00	322.03	0.00	5.26	-78.20	0.00555
COc1ccc(CNC(=O)C2CCN(C(=O)c3ncn4c3COC(c3ccccc3)C4)CC2)cc1 (stereo not shown) [NCGC00449778-01]	–	–	–	–	–	0.00	0.00	301.65	0.00	5.01	-88.62	0.00988
O=C(NCc1ccc(F)cc1)C1CCN(C(=O)c2ncn3c2COC(c2ccccc2)C3)CC1 (stereo not shown) [NCGC00449784-01]	–	–	–	–	–	0.00	0.00	341.35	0.00	5.26	-93.60	0.00555
O=C(NCc1ccc(F)cc1F)C1CCN(C(=O)c2ncn3c2COC(c2ccccc2)C3)CC1 (stereo not shown) [NCGC00449785-01]	–	–	–	–	–	0.00	0.00	291.32	0.00	5.06	-69.49	0.0088
O=C(NCc1ccccc1Cl)C1CCN(C(=O)c2ncn3c2COC(c2ccccc2)C3)CC1 (stereo not shown) [NCGC00449786-01]	–	–	–	–	–	0.00	15.00	336.94	0.00	5.01	-73.36	0.00988
O=C(NCc1cccc(Cl)c1)C1CCN(C(=O)c2ncn3c2COC(c2ccccc2)C3)CC1 (stereo not shown) [NCGC00449787-01]	–	–	–	–	–	0.00	-16.86	263.69	0.00	4.96	-81.06	0.0111
O=C(NCc1ccc(Cl)cc1)C1CCN(C(=O)c2ncn3c2COC(c2ccccc2)C3)CC1 (stereo not shown) [NCGC00449788-01]	–	–	–	–	–	0.00	0.00	324.91	0.00	5.41	-95.09	0.00393
O=C(NCc1ccc(F)c(Cl)c1)C1CCN(C(=O)c2ncn3c2COC(c2ccccc2)C3)CC1 (stereo not shown) [NCGC00449790-01]	–	–	–	–	–	0.00	-17.00	237.76	0.00	5.46	-95.32	0.0035
O=C(NCCCc1ccccc1)C1CCN(C(=O)c2ncn3c2COC(c2ccccc2)C3)CC1 (stereo not shown) [NCGC00449797-01]	–	–	–	–	–	0.00	0.00	265.99	0.00	5.36	-79.71	0.00441
Cc1ccccc1CNC(=O)C1CCN(C(=O)c2ncn3c2COC(c2ccccc2)C3)CC1 (stereo not shown) [NCGC00449798-01]	–	–	–	–	–	0.00	0.00	370.72	0.00	5.26	-85.12	0.00555
O=C(NCc1cccc(F)c1)C1CCN(C(=O)c2ncn3c2COC(c2ccccc2)C3)CC1 (stereo not shown) [NCGC00449803-01]	–	–	–	–	–	0.00	0.00	254.28	0.00	5.11	-83.73	0.00784
